In US6992085B2, “Octahydro-2H-pyrido[1,2-a]pyrazine compounds” (Les Laboratories Servier, priority 2001, dated 2006):

Target: T1, type H3 central histamine receptors (Mus musculus, UniProt P58406)
T1 construct: from tissue
Experiment: Cerebral dosages of N^t-methylhistamine in the NMRI mouse (ex vivo, RIA)
Conditions: NMRI mice, brain one hour after treatment, versus carrier controls
Procedure: The purpose of this study, which was carried out in accordance with the method of Taylor et al. (Biochem. […] An increase in the cerebral concentrations of N^t-methylhistamine indicates an increase in the turn-over of histamine by blockage of the type H3 central histamine receptors. […] One hour after the pharmacological treatment, the animals are sacrificed, and their brains are removed, frozen in liquid nitrogen, weighed and homogenised in 0.1N HClO4 at 4° C. […] The supernatants are recovered and divided into aliquots. The aliquots are frozen in liquid nitrogen and stored at −80° C. until analysis. Determination of the cerebral levels of N^t-methylhistamine is carried out by radioimmunological assay (RIA) using an assay kit. The tissue levels of N^t-methylhistamine are expressed in μg/g of fresh brain. The comparison of the cerebral levels of N^t-methylhistamine between animals treated with the carrier (controls) and animals treated with compounds of the present invention is carried out by single factor variance analysis followed, if necessary, by a complementary analysis (Dunnett test).

T1 sequence (P58406 whole entry): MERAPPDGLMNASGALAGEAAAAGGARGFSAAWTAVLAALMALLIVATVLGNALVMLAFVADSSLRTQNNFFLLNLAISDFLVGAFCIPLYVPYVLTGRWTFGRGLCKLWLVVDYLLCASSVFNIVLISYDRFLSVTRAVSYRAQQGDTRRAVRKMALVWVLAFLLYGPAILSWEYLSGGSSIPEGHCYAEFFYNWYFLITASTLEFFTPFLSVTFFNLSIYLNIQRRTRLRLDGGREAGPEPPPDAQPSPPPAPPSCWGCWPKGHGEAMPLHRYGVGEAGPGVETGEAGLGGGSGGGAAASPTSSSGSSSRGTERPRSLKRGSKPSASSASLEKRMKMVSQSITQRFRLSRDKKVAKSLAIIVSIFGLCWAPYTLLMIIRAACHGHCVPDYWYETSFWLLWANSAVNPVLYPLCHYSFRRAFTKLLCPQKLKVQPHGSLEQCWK

| increase in endogenous cerebral concentrations of N^t-methylhistamine (30 mg/kg IP) | Structure (SMILES) | further results |
| --- | --- | --- |
| – | N#Cc1ccc(OCCCN2CCN3CCCCC3C2)cc1.O=C(O)/C=C/C(=O)O.O=C(O)/C=C/C(=O)O (single isomer, unassigned) [Example 58, 4-(3-octahydro-2H-pyrido[1,2-a]pyrazin-2-ylpropoxy)benzonitrile difumarate, enantiomer β] | increase in endogenous cerebral concentrations of N^t-methylhistamine (10 mg/kg IP, 10 mg/kg): 236% |
| – | N#Cc1ccc(OCCCN2CCN3CCCCC3C2)cc1.O=C(O)/C=C/C(=O)O.O=C(O)/C=C/C(=O)O (stereo not shown) [Example 56, 4-(3-Octahydro-2H-pyrido[1,2-a]pyrazin-2-ylpropoxy)benzonitrile difumarate] | increase in endogenous cerebral concentrations of N^t-methylhistamine (10 mg/kg IP, difumarate, 10 mg/kg): 252% |
| 89% | Cl.Cl.Cl.c1ccc2c(c1)ncn2CCCCN1CCN2CCCCC2C1 (stereo not shown) [Example 53, 2-[4-(1H-Benzimidazol-1-yl)butyl]octahydro-2H-pyrido[1,2-a]pyrazine trihydrochloride] | – |
| 124% | Cl.Cl.c1ccc2c(c1)cnn2CCCCN1CCN2CCCCC2C1 (stereo not shown) [Example 55, 2-[4-(1H-Indazol-1-yl)butyl]octahydro-2H-pyridol[1,2-a]pyrazine dihydrochloride] | – |
